pIC50: −log10 of the molar value. “And” between values parts separate entries of the source, which are not always exact repeats. Equal entries are not always repeated. Where two headings read alike, the source gives them in different places.
Key:
[1] = Pharmacokinetic (PK) study, IV and oral route, in mice; conditions: mouse, in vivo, oral 2 mg/ml formulation vs IV 1 mg/ml formulation
Description: Bioavailability in Pharmacology is a measure of an amount of a drug substance that enters the circulation and becomes completely available for its intended purpose when introduced into the body. There are several delivery routes for drugs including intra-venous route (IV), oral route, subcutaneous route, rectal route, intramuscular route, vaginal route, inhaled route, and the like.
Bioavailability of CK-TGX-MN was determined in relation to a liquid formulation of CK-TGX-MN 1 mg/ml in 5% DMSO, 10%, and 85% aqueous solution. A dose amount of aqueous CK-TGX-MN was prepared for delivery through the IV route in-vivo. Additionally, a liquid formulation of CK-TGX-MN 2 mg/ml in 5% DMSO, 10%, and 85% aqueous solution was prepared for delivery of a dose amount of CK-TGX-MN through the oral route in-vivo. The pharmacokinetic (PK) studies were performed in mice. As shown in graph 302 of FIG. 3B, the depicted example mice had similar clearance of IV delivered CK-TGX-MN over time.

LNCaP cell line cells = test: Cellular uptake / cell killing by luminescence, LNCaP; format: cell-based; conditions: Homo sapiens, FIG. 5F
Description: (§1) Different cell lines were seeded, incubated, and washed prior to administering a dose solution of CK-TGX-MN. Cell lines tested included LNCaP cell line, which is a cell line with epithelial-like morphology that was isolated from a metastatic lymph node a lesion of human prostate cancer; C4-2, which is a prostate cancer cell line derived from LNCaP cells that grows in the absence of androgens, yet responds to manipulation of androgen levels; GL261 cell line, which are murine glioma cells isolated from […] brain; PC-3 cell line, which is a prostate cancer cell line that is typically used as a model of androgen-independent prostate cancer; TRAMP cell line, which are epithelial cells isolated from transgenic adenocarcinoma of the mouse prostate; and Hela cell line, which is an immortalized human cell line isolated from cervical cancer cells.
(§2) The cellular uptake was measured as a function of luminescence and concentration of CK-TGX-MN, by determining the IC50 value. A decrease in luminescence observed translates to the efficacy of CK-TGX-MN in killing the cells of the respective cell culture.
Finally, moving on to FIG. 5F, the cellular uptake of CK-TGX-MN and TGX-221 in LNCaP cell line cells was measured.

Hela cell line cells = test: Cellular uptake / cell killing by luminescence, Hela; format: cell-based; conditions: Homo sapiens, FIG. 5E
Description: as §1, §2
Moving on to FIG. 5E, the cellular uptake of CK-TGX-MN and TGX-221 in Hela cell line cells was measured.

TRAMP cell line cells = test: Cellular uptake / cell killing by luminescence, TRAMP; format: cell-based; conditions: Mus musculus, FIG. 5D
Description: as §1, §2
Moving on to FIG. 5D, the cellular uptake of CK-TGX-MN and TGX-221 in TRAMP cell line cells was measured.

PC-3 cell line cells = test: Cellular uptake / cell killing by luminescence, PC-3; format: cell-based; conditions: Homo sapiens, PC-3 cells, FIG. 5C
Description: as §1, §2
Moving on to FIG. 5C, the cellular uptake of CK-TGX-MN and TGX-221 in PC-3 cell line cells was measured.

physchem = format: physicochemical
PI3Kβ isoform = PI3Kβ isoform (Homo sapiens, UniProt P42338); test: Inhibition of PI3Kβ isoform, dose response curves (FIG. 4B); format: biochemical
GL261 cell line cells = test: Cellular uptake / cell killing by luminescence, GL261; format: cell-based, murine; conditions: Mus musculus, FIG. 5B
Description: as §1, §2

C4-2 cell line cells = test: Cellular uptake / cell killing by luminescence, C4-2; format: cell-based; conditions: Homo sapiens, C4-2 cells, FIG. 5A
Description: as §1, §2

[2] = background statement, cited from earlier work

Sequence of PI3Kβ isoform (P42338 whole entry, canonical isoform): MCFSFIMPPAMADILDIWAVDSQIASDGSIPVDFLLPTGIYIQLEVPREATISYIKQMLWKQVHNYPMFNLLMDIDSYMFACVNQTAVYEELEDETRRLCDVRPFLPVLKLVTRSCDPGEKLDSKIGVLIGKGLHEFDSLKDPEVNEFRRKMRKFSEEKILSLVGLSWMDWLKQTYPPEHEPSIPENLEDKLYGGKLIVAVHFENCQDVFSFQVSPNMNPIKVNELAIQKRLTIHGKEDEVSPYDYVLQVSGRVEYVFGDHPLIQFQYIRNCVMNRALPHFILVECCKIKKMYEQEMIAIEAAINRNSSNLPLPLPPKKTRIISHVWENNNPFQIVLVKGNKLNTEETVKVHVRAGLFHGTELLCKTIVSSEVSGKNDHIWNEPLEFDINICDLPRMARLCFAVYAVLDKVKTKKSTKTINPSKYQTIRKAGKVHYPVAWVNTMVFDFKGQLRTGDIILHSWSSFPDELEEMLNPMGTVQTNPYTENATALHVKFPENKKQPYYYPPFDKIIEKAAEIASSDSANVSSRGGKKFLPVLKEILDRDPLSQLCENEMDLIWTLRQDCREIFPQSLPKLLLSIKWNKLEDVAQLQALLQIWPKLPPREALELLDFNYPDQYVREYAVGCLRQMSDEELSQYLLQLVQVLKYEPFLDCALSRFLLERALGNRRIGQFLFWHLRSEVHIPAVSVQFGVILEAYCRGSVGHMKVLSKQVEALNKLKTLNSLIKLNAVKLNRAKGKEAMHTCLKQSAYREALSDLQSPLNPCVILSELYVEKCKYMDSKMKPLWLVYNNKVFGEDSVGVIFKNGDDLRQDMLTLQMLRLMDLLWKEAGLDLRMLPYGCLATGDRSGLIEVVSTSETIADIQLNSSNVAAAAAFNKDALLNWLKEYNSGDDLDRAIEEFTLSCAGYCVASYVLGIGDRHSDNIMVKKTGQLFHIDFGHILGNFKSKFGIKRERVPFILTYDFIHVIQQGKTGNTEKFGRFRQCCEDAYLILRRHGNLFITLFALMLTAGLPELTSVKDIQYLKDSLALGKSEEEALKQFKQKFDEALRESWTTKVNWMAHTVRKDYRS
Sequence of PI3Kβ isoform (P27986 whole entry partner, canonical isoform): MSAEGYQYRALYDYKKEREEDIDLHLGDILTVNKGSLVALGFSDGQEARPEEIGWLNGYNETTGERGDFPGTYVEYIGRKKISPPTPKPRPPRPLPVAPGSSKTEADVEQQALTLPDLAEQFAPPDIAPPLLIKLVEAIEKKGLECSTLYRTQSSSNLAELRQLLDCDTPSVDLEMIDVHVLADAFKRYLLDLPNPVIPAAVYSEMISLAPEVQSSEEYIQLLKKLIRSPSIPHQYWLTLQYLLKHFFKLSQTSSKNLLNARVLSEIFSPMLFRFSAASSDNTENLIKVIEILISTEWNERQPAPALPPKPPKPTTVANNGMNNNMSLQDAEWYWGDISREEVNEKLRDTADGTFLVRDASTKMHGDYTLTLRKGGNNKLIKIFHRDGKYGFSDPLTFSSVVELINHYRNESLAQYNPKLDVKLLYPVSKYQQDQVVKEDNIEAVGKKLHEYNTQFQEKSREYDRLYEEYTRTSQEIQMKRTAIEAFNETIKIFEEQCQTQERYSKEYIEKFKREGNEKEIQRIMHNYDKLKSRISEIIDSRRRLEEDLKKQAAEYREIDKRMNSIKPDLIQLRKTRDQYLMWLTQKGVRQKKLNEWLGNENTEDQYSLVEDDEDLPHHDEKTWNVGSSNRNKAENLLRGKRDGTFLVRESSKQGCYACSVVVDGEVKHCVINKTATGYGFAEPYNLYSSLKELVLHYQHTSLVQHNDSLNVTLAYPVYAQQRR

SMILES | bioavailability [1] | pIC50 (LNCaP cell line cells) | pIC50 (Hela cell line cells) | pIC50 (TRAMP cell line cells) | pIC50 (PC-3 cell line cells) | solubility (physchem) | pIC50 (PI3Kβ isoform) | pIC50 (GL261 cell line cells) | pIC50 (C4-2 cell line cells) | solubility [2] | Log D7.4 ([2]; pH 7.4)
Cc1cc(C(C)N(CCN)c2ccccc2)c2nc(N3CCOCC3)cc(=O)n2c1 (stereo not drawn) [CK-TGX-MN, 9-(1-((2-aminoethyl)(phenyl)amino)ethyl)-7-methyl-2-morpholino-4H-pyrido[1,2-a]pyrimidin-4-one] | ~6.4% | 5.19 | 4.62 | 4.76 | 4.61 | 4630 µg/mL and 11400 µM | 8.02 | 4.87 | 4.80 |  | 
Cc1cc(C(C)Nc2ccccc2)c2nc(N3CCOCC3)cc(=O)n2c1 (stereo not drawn) [TGX-221, 7-methyl-2-(4-morpholinyl)-9-[1-(phenylamino)ethyl]-4H-pyrido[1,2-a]pyrimidin-4-one] |  | 4.52 | 4.16 | 4.09 | 3.81 | 90 µg/mL and 250 µM |  | 4.38 | 4.03 | < 1000 µg/mL | 3.6

Reference: patent US20250195532A1, “NOVEL PHOSPHOINOSITIDE 3-KINASE (PI3K) INHIBITOR, COMPOSITIONS COMPRISING THE SAME, METHODS OF MAKING, AND METHODS OF TREATING A DISEASE” (The Curators of the University of Missouri, priority 2022, published 2025)
